Results reported in US20240245682A1, “ALPHA-V-BETA-8 INTEGRIN INHIBITORS AND USES THEREOF” (Pliant Therapeutics, Inc., priority 2022, published 2024).
Where “and” joins values, the source holds several entries; their conditions need not be identical. Equal values may be shown once.

Legend:
[1] = system: TKCC-08 tumors; experiment: Subcutaneous FNX-resistant TKCC-08 PDX model of PDAC (Example B12); assay type: in vivo, NSG mice
Protocol: (§1) Table B-9 depicts the study design to determine the efficacy of selective αvβ1/αvβ8 SMI in the orthotopic ECM-high PDX models of PDAC. Table B-10 depicts the study design for the TKCC-10 PDX model.
Table B-12 depicts the study design for the TKCC-08 model.
FNX is a standard of care chemotherapy regimen for pancreatic ductal adenocarcinoma. However, the clinical response to FNX remains bleak. To assess if Compound 39 augmented the therapeutic benefit of FNX, Compound 39 was tested alone and in combination with FNX in the TKCC-08 model, which is made FNX-resistant by continuous exposure to the FNX.

[2] = system: Pan02 tumors; experiment: Pan02 (pancreatic) syngeneic tumor model (Example B6); assay type: in vivo, C57BL/6 mice
Protocol: The therapeutic impact of Compound 39 of the examples in combination with anti PD-1 was studied for several […] mouse models, as shown in Table B-3. For each model, four dosing regimens were studied, using a group size of 10 mice per dosing regimen per model, and a total of 40 mice per model.
Mice were shaved and tumor cells as indicated in Table B-3 were subcutaneously implanted in a 100 μl cell suspension that was subcutaneously injected into the front/rear flank of each mouse (as indicated in Table B-3).
There was no dosing holiday. Dietary supplements were uniform for all animals in the same group.
Animals were monitored weekly for changes in tumor volume. Tumors were measured at least once a week using calipers. Tumor volume was calculated using the equation: (longest diameter*shortest diameter^2)/2. […]
Tumor tissues (50 to 80 mg) were homogenized using metal beads in pre-chilled RINO screw cap tubes, using lysis matrix (MP Lysing Matrix S [⅛″], 2 mL Tube MP Biomedical Cat #116925100) on MP Fast Prep 24 instrument. […] Hybridized reactions were read on nCounter MAX (Nanostring), and data were analyzed using nCounter software.
Table B-5 lists the catalog numbers of the antibodies used in the immunohistochemical (IHC) studies. Quantification of staining was done using the HALO software package (Indica Labs, Albaquerque, NM).

[3] = biological target: human integrin αVβ8 (Homo sapiens, UniProt P06756+P26012); experiment: AlphaScreen proximity-based integrin binding assay with TGF-b1 LAP; conditions: values given as ranges
How it was run: (§2)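 Purified human integrin incubated with compound, TGF-b1 LAP, biotinylated anti-LAP antibody and acceptor beads for 2 h, then streptavidin donor beads 30 min, room temperature, in 50 mM Tris-HCl pH 7.5, 0.1% BSA, 1 mM CaCl2/MgCl2. AlphaScreen signal (680 nm excitation, 520-620 nm emission); IC50 by four-parameter fit.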

[4] = biological target: human integrin αVβ6 (Homo sapiens, UniProt P06756+P18564); experiment: as above; conditions: values given as ranges
How it was run: as §2

[5] = biological target: human integrin αVβ1 (Homo sapiens, UniProt P05556+P06756); experiment: as above; conditions: values given as ranges
How it was run: as §2

[6] = system: human breast and melanoma tumor tissues; experiment: Ex vivo cultured human breast and melanoma tumor tissues (Example B9); assay type: cell-based
Protocol: Inhibition of αvβ1 and TGF-β mediated by Compound 39 of the examples was monitored via cell adhesion assays and transcriptomic analyses. αvβ1 protein expression was evaluated on human tumor tissues via immunohistochemistry using an indigenously developed anti-αvβ1 antibody. Efficacy of Compound 39 monotherapy and in combination with ICB was evaluated in syngeneic mouse models bearing EMT6 and Pan02 tumors. Animal survival, tumor growth, transcriptomic analyses, tissue fibrosis, and TILs were monitored along with circulating lymphocytes and cytokines. Tissue and circulating biomarkers of response to Compound 39 were identified. Human breast and melanoma tumor tissues were cultured ex vivo and Compound 39 activity was assessed by measuring CD8+ cytotoxic T cells and tumor apoptosis.

[7] = system: TKCC-05 tumors; experiment: Orthotopic TKCC-05 (PDX-05) PDX model of PDAC (Example B12); assay type: in vivo, NSG mice; conditions: FIG. 26B
Protocol: as §1
Table B-11 depicts the study design for the TKCC-05 model.
TKCC-05 cells were inoculated in the pancreas of […] mice and were allowed to grow into tumors for 1 week. The mice were then treated according to schema outlined in […], and FIG. 26A, which depicts a schematic diagram of the treatment regimen in the TKCC-05 PDAC PDX model for this study. FIG. 26B depicts a graph associated with the quantification of tumor weights in mice treated with Compound 39, Reference compound B, and ADWA-11 Ab for the study associated with Example B12. FIG. 26C depicts a graph associated with the quantification of tumor weights in mice treated with G/A, Compound 39+G/A, Reference compound B+G/A, and ADWA-11+G/A for the study associated with Example B12. P values by one-way ANOVA.

human integrin αVβ8, sequence (P06756 31-992 limits assumed): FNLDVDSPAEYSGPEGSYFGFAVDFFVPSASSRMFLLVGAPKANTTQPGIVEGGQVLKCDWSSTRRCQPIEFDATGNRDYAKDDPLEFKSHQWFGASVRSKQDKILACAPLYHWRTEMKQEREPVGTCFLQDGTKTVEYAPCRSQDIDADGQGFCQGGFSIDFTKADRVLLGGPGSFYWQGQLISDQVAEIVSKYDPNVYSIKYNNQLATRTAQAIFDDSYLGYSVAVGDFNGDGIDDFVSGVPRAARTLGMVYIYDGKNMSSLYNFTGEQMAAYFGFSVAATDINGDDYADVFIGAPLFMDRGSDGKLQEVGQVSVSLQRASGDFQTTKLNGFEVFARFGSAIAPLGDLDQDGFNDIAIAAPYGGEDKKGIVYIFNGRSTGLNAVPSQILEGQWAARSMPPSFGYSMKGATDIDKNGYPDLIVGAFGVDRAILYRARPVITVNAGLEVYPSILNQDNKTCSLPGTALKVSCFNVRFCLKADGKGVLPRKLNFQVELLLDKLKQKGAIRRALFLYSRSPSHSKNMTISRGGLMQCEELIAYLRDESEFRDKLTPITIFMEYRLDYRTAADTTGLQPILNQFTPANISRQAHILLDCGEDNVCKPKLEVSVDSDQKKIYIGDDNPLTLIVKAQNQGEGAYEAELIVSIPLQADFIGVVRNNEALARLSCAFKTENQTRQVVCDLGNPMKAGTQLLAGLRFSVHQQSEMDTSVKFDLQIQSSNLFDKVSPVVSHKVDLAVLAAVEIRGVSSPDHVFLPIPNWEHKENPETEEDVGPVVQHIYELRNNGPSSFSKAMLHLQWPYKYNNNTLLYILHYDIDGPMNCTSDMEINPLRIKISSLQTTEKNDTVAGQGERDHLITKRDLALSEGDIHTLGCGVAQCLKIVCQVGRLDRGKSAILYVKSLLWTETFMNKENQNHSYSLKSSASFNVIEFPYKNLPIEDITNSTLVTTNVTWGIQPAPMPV
human integrin αVβ8, sequence (P26012 43-684 limits assumed): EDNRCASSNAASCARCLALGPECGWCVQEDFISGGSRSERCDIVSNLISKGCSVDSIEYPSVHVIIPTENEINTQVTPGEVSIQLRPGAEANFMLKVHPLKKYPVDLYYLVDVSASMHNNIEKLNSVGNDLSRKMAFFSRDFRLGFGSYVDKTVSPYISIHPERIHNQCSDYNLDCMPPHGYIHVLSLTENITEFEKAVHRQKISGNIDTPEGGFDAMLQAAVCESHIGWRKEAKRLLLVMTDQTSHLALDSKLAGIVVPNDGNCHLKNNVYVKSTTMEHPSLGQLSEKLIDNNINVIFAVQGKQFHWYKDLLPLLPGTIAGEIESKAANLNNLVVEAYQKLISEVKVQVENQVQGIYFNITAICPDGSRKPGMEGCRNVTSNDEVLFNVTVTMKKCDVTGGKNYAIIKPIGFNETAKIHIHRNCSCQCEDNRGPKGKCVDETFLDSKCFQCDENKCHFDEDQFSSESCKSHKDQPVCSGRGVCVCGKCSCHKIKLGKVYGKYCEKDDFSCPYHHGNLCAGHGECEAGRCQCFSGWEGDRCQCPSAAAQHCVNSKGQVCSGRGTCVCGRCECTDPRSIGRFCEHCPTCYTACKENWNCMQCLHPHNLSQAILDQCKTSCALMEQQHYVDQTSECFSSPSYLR
human integrin αVβ1, sequence (P06756 31-992 limits assumed): as the sequence (P06756 31-992 limits assumed) above
human integrin αVβ1, sequence (P05556 21-728 limits assumed): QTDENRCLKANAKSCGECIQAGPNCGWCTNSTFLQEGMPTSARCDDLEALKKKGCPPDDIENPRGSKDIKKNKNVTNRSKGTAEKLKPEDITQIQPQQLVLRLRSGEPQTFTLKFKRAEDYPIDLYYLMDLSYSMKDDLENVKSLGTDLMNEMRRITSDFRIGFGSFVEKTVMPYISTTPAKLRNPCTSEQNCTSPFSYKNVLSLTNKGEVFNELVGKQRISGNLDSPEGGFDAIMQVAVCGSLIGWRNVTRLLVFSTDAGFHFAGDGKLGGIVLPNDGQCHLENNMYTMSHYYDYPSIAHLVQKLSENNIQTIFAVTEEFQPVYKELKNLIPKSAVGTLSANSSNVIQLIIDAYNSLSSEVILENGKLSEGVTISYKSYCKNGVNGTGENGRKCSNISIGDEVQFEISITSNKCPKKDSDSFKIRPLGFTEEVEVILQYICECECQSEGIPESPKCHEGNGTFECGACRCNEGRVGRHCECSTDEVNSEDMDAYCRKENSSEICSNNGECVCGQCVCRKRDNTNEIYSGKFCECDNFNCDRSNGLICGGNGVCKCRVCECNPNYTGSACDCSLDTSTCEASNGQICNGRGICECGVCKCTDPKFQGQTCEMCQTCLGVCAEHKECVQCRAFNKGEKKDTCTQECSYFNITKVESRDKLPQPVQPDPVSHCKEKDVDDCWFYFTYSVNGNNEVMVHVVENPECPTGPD
human integrin αVβ6, sequence (P06756 31-992 limits assumed): as the sequence (P06756 31-992 limits assumed) above
human integrin αVβ6, sequence (P18564 22-707 limits assumed): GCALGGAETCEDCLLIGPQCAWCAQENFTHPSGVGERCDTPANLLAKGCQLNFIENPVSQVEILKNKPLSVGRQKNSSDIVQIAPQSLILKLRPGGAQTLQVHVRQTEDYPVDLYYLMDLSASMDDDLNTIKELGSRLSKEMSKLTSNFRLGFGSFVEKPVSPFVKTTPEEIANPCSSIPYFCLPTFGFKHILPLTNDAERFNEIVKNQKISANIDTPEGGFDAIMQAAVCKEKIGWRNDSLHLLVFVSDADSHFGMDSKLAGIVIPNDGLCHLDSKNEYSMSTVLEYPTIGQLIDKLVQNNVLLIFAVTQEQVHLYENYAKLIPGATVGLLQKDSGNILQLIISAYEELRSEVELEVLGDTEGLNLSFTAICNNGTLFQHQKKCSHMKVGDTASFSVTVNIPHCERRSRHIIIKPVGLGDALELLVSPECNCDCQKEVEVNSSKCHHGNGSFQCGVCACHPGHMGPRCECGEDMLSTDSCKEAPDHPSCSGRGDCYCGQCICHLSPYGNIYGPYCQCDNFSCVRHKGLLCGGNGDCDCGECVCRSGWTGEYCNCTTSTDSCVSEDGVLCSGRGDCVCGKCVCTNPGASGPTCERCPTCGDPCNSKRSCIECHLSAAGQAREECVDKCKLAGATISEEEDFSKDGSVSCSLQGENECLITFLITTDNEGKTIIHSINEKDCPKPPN

**Q.** What does the source list for Cc1ncnc(Cl)c1C1(C(=O)N[C@@H](CCOCCCCc2ccc3c(n2)NCCC3)C(=O)O)CC1 [Compound 39, N-(1-(4-chloro-6-methylpyrimidin-5-yl)cyclopropane-1-carbonyl)-O-(4-(5,6,7,8-tetrahydro-1,8-naphthyridin-2-yl)butyl)-L-homoserine]?
**A.** mean tumor weight ([1]; FNX-resistant subcutaneous tumors, Compound 39 300 mg/kg BID oral, FNX i.v. weekly, FIG. 27B): 0.4 ± 0.15 g; tumor growth and tumor weight ([1]; in words, FIG. 27A, 27B): significantly reduced the tumor growth and the tumor weight; tumor growth ([2]; Pan02, FIG. 16A, 41): inhibited Pan02 tumor growth; CD8^+ T cell infiltration ([2]; in words, FIG. 16B, 43): increased T-cell infiltration; IC50 [3]: < 50 nM; IC50 [4]: ≥ 500 nM; IC50 [5]: < 50 nM; cytotoxic CD8^+ T cells [6]: significant increase in cytotoxic CD8^+T cells; fibrotic markers [6]: reduction in fibrotic markers; mean tumor weight ([7]; 30 days treatment): 0.23 ± 0.08 g and 0.228 ± 0.06 g; tumor weight / tumor growth ([7]; in words, 26C): significantly blocks tumor growth
